ChEMBL document CHEMBL4017456, “The discovery of tetrahydropyridine analogs as hNav1.7 selective inhibitors for analgesia” (Bioorg Med Chem Lett, 2017)

Key:
in vivo [1] = conditions: Sprague-Dawley, rat, iv, 0.5 mg/kg
in vivo [2] = conditions: Sprague-Dawley, rat, plasma, po, 2 mg/kg
[3] = Ratio of drug level in brain to plasma in Sprague-Dawley rat at 0.5 mg/kg, iv or 2 mg/kg, po by LC-MS/MS analysis; assay type: ADME, organism-based; conditions: read-out: BPR
in vivo [4] = conditions: Sprague-Dawley, rat, plasma, po, 2 mg/kg; remark: listed apart in the source
in vivo [5] = conditions: Sprague-Dawley, rat, plasma, iv, 0.5 mg/kg
in vivo [6] = conditions: Sprague-Dawley, rat, plasma, po, 2 mg/kg; remark: listed apart in the source
in vivo [7] = conditions: Sprague-Dawley, rat, iv, 0.5 mg/kg; remark: listed apart in the source
in vivo [8] = conditions: Sprague-Dawley, rat, plasma, iv, 0.5 mg/kg; remark: listed apart in the source
Plasma [9] = assay: Plasma concentration in Sprague-Dawley rat at 100 mg/kg administered via oral gavage by LC-MS/MS method; assay type: ADME, organism-based; conditions: in vivo
Plasma [10] = assay: Free plasma concentration in Sprague-Dawley rat at 100 mg/kg administered via oral gavage by LC-MS/MS method; assay type: ADME, organism-based; conditions: in vivo
in vivo [11] = conditions: Sprague-Dawley, rat, plasma, po, 10 mg/kg
in vivo [12] = conditions: Sprague-Dawley, rat, plasma, po, 10 mg/kg; remark: listed apart in the source
[13] = Ratio of drug level in brain to plasma in Sprague-Dawley rat at 1 mg/kg, iv or 10 mg/kg, po by LC-MS/MS analysis; assay type: ADME, organism-based; conditions: read-out: BPR
[14] = Volume of distribution at steady state in Sprague-Dawley rat plasma at 1 mg/kg, iv administered as single bolus dose by LC-MS/MS analysis; assay type: ADME, organism-based; conditions: read-out: Vdss
[15] = AUC (0 to last) in Sprague-Dawley rat plasma at 1 mg/kg, iv administered as single bolus dose by LC-MS/MS analysis; assay type: ADME, organism-based; design: dose 1 mg/kg, route intravenous, time 0 - last
[16] = Clearance in Sprague-Dawley rat at 1 mg/kg, iv administered as single bolus dose by LC-MS/MS analysis; assay type: ADME, organism-based; conditions: in vivo
in vitro = conditions: human, Caco-2
in vivo [17] = conditions: Sprague-Dawley, rat, plasma, po, 10 mg/kg; remark: listed apart in the source
[18] = Half life in Sprague-Dawley rat plasma at 1 mg/kg, iv administered as single bolus dose by LC-MS/MS analysis; assay type: ADME, organism-based

SMILES: N[C@@H]1CCC=C(c2ccc(F)cc2)[C@H]1COc1cc(F)c(S(=O)(=O)Nc2cscn2)cc1Cl
- AUC(0-t) (in vivo [1]): 0.34 µM·h
- bioavailability (in vivo [2]): 18.4%
- Kp [3]: 0.26
- Tmax (in vivo [4]): 1.7 h
- Vd (in vivo [5]): 8.9 L/kg
- AUC(0-t) (in vivo [6]): 0.25 µM·h
- clearance (in vivo [7]): 39.2 mL/min/kg
- half-life (in vivo [8]): 3.6 h

SMILES: O=S(=O)(Nc1cscn1)c1cc(Cl)c(OC[C@H]2NCCC=C2c2ccc(F)cc2)cc1F
- concentration (Plasma [9]): 82.1 µM
- Cp(f) (Plasma [10]): 0.41 µM

SMILES: O=S(=O)(Nc1cscn1)c1cc(Cl)c(OCC2NCCC=C2c2ccc(F)cc2)cc1F (stereo unspecified)
- Tmax (in vivo [11]): 3.8 h
- bioavailability (in vivo [12]): 64.8%
- Kp [13]: 0.017
- Vd [14]: 0.6 L/kg
- AUC(0-t) [15]: 3.56 µM·h
- clearance [16]: 4.5 mL/min/kg
- Papp A→B (in vitro): 3.2 ×10⁻⁶ cm/s
- AUC(0-t) (in vivo [17]): 41.8 µM·h
- half-life [18]: 2.7 h

SMILES: Nc1[nH]ncc1-c1cc(Cl)ccc1Oc1cc(F)c(S(=O)(=O)Nc2cscn2)cc1Cl [PF-05089771]
- concentration (Plasma [9]): 55.8 µM
- Cp(f) (Plasma [10]): 0.279 µM
